Results taken from publication PMC3045100, “Cell-Penetrating Penta-Peptides (CPP5s): Measurement of Cell Entry and Protein-Transduction Activity” (Pharmaceuticals, 2010).

Columns and labels:
[1] = test system: Primary cultured mouse embryonic fibroblast (MEF) cells; assay: Cytotoxicity (apoptosis, Hoechst nuclear staining) of CPP5 and TAT; assay type: cell-based
Description: List of cell-penetrating penta-peptides (CPP5s). […] Peptide sequences are color-coded to show the constant amphipathic amino acid arrangement in each CPP5. […] Fam was labeled on the N-terminus of all peptides examined. Cells were analyzed by FACS and/or microscopy. The activity of each peptide is shown as a percentage of the activity of KLPVM. Each value represents the mean of triplicate samples. Cell entry of some peptides was confirmed by microscopy only, and these peptides are indicated with a '+' without a percentage value. For cytoprotective activity (right column), the information is based on previous studies and the activity was determined by the protection of cells from Bax overexpression and other apoptotic stimuli such as etoposide treatment. b to e. Cell entry of Fam-labeled […], and poly-arginine (R8). […] Comparison of the cytotoxicity of CPP5 and TAT. Primary cultured mouse embryonic fibroblast (MEF) cells were treated with various concentrations of peptides for 24 h as indicated. Then, apoptosis was analyzed as described in Experimental Procedures. Each bar represents the mean of triplicate samples and standard error.

[2] = test system: CHO A745 cells; assay: Protection from staurosporine-induced apoptosis (Hoechst nuclear staining); assay type: cell-based, Chinese hamster; conditions: VPTLK 3 h pre-incubation, 100 nM STS for 3 and 6 h, Hoechst dye nuclear staining, triplicate samples
Description: (§1) Figure 3 Protection of cells from apoptosis by VPTLK. a-d. Proteoglycan is not required for VPTLK cell entry. Microscopic analysis of cell entry of Fam-VPTLK in Chinese Hamster Ovary (CHO) A745 cells lacking proteoglycans in the plasma membrane (a) and CHO K1 cells that express proteoglycans (b). CHO A745 and K1 cells were incubated with Fam-VPTLK (200 μM) for 3 h at 37 °C. […] Apoptosis was determined by using Hoechst dye nuclear staining. Each bar represents the mean of triplicate samples and standard error, and statistical significance was determined by an unpaired student t test; “ns”: not significant, *P < 0.05, and **P < 0.01. e. […] Jurkat cells were pre-incubated with VPTLK 200 μM for 3 h prior to STS treatment (100 nM, 3 or 6 h). Apoptosis was determined by Hoechst dye nuclear staining. Each bar represents the mean of triplicate samples and standard error, and statistical significance was determined by an unpaired student t test: **P < 0.01. f. […] Apoptosis was determined by Hoechst dye nuclear staining. […]
(§2) To induce Bax-mediated apoptosis in HeLa cells, cells were transfected with pEGFP-Bax (1 µg) and apoptosis was determined 24 h after the transfection. […] To detect apoptosis, cells were stained with Hoechst 33258 dye, and the numbers of cells with apoptotic nuclei were counted using fluorescence microscopy. Three-hundred cells were analyzed in triplicate samples. […]

[3] = test system: CHO K1 cells; assay: as above; assay type: cell-based, Chinese hamster; conditions: VPTLK 3 h pre-incubation, 100 nM STS for 3 and 6 h, Hoechst dye nuclear staining, triplicate samples
Description: as §1, §2

[4] = test system: Jurkat cells; assay: as above; assay type: cell-based; conditions: 200 μM peptide 3 h pre-incubation, STS 100 nM, 3 or 6 h, Hoechst dye nuclear staining, triplicate samples, P < 0.01
Description: as §1, §2

Substance: VPTLK
- Cytotoxic effect at 1.6 mM in the cell culture medium [1]: did not show significant cytotoxic effects
- Protection from staurosporine treatment, CHO A745 [2]: protected both cell lines
- Protection from staurosporine treatment, CHO K1 [3]: protected both cell lines
- Protection from STS-induced apoptosis, Jurkat [4]: protected Jurkat cells from STS-induced apoptosis
